“And” between values parts separate entries of the source, which are not always exact repeats. Equal entries are not always repeated.
Tests used:
[1] = test system: H1299; assay: Cellular proliferation assay (Alamar blue), H1299; assay type: cell-based; conditions: H1299 cells, 72 hours with compound, 10% FCS; for IC50: Homo sapiens, NCI-H1299, 72 h, read-out: pIC50 H1299 (converted)
Procedure: (§1) […] functional properties of these compounds was tested in cellular proliferation assays on a panel of different cell lines in the presence of 10% FCS serum (37° C. and 5% (v/v) CO2). In a first step these cells were seeded and incubated for 24 hours in the absence of compound. In the second step the cells were incubated for 72 hours with the compounds to be tested for 72 hours. The viable cell number was finally assessed in a standard Alamar blue cell viability assay.
(§2) The viable cell number was assessed by incubation for either 4 h (HCT-116, H1299, H460) 6 h (SKOV3, HT29, U87-MG, Colo205) or 24 h (A2780, PC3, MDA-MB-231, A549, MCF-7) with Alamar blue (Resazurin 9 μg/ml, K-Ferrocyanide 90 μM K-Ferricyanide 90 μM) and the converted fluorescent product was quantified on a fluorescent plate readed (544 nm/590 nm). Effect of the compounds is calculated as of on control cells.

[2] = molecular target: CDK1/CyclinB (h) (Homo sapiens, UniProt P06493); assay: CDK1/CyclinB human kinase assay (FRET); assay type: biochemical; conditions: for IC50: read-out: CDK1 pIC50 (converted)
Procedure: (§3) The in vitro inhibition of a panel of kinases was assessed using either the scintillation proximity assay (SPA) as described by Cook, N. D. et al., Advances in Experimental Medicine and Biology (1991), 36; p. 525-528; or the Fluorescence Resonance Energy Transfer (FRET) technology as described by Rodems, S. M. et al., Assay Drug Develop. Technol. (2002), 1; p. 9-19.
In the FRET technology the activity of the kinase of interest is measured using an appropriate substrate that is labeled with two fluorophores (coumarin and fluorescein). Phosphorylation is determined using a developing reagent comprising a protease that recognizes and cleaves nonphosphorylated peptides. Cleavage will disturb the FRET between the fluorescein and coumarin on the peptide. Uncleaved, phosphorylated peptides maintain the FRET signal. A ratiometric readout of the donor emission over the acceptor emission quantitates the reaction process.
(§4) All kinases are pre-diluted to a 10× working concentration prior to addition into the assay. The composition of the dilution buffer for each kinase is detailed below.
In a final reaction volume of 10 μl, CDK1/CyclinB (h) (0.2 μg/ml) is incubated with 50 mM Hepes pH 7.5, 10 mM MgCl2, 1 mM EGTA, 0.01% Brij-35, 2 μM Z'lyte Ser/Thr peptide 12 and 10 μM ATP (Invitrogen's FRET assay). After incubation of 60 minutes at room temperature, the reaction is stopped by addition of 5 μL development reagent containing protease mix. After 60 minutes room temperature the development reaction is stopped by adding 5 μl stop solution. The plate is then read in fluorescence plate reader with excitation: 390 nm and dual emission: 460 and 538 nm. Emission ratio is determined to the formula=Emission signal intensity at 460 nm/Emission signal intensity at 538 nm.

[3] = molecular target: PLK4 (h) (Homo sapiens, UniProt O00444); assay: PLK-4 human kinase assay (SPA); assay type: biochemical; conditions: for IC50: read-out: PLK4 pIC50 (converted)
Procedure: as §3
(§5) In the SPA technology the activity of the kinase of interest is measured using an appropriate biotinylated substrate that is incubated with the aforementioned kinase protein in the presence of (^33P) radiolabeled ATP. (^33P) Phosporylation of the substrate is subsequently measured through binding of the phosphorylated substrate to streptavidine coated beads that are based on the scintillant poly(vinyl toluene) (PVT-Beads). The scintillation intensity is detected by imaging on Leadseeker.
as §4
In a final reaction volume of 30 μl PLK4 (h) (19 μg/ml) is incubated with 50 mM Hepes pH 8.0, 10 mM MgCl2, 50 mM NaCl, 1 mM NaF, 1 mM DTT, 10 μM of peptide Biotin-RPRGQRDSSYYWE-OH, 1 μM ATP and 2 nM [γ-^33P-ATP] (6.0 μCi/ml). After incubation of 60 minutes at room temperature, the reaction is stopped by addition of 40 μl, of stop solution containing 8.7 mM EDTA, BSA 0.17%, 0.17% Triton X-100, 1.7 mg/ml SPA beads (GE-healthcare). The plate is centriguged and read for Scintillation imaging on Leadseeker.

[4] = test system: MDA/MB231; assay: Cellular proliferation assay (Alamar blue), MDA/MB231; assay type: cell-based; conditions: MDA/MB231 cells, 72 hours with compound, 10% FCS; for IC50: Homo sapiens, MDA-MB-231, 72 h, read-out: pIC50 MDA/MB231 (converted)
Procedure: as §1, §2

[5] = test system: A2780; assay: Cellular proliferation assay (Alamar blue), A2780; assay type: cell-based; conditions: A2780 cells, 72 hours with compound, 10% FCS; for IC50: Homo sapiens, A2780, 72 h, read-out: pIC50 A2780 (converted)
Procedure: as §1, §2

[6] = test system: HCT-116; assay: Cellular proliferation assay (Alamar blue), HCT-116; assay type: cell-based; conditions: HCT-116 cells, 72 hours with compound, 10% FCS; for IC50: Homo sapiens, HCT-116, 72 h, read-out: pIC50 HCT-116 (converted)
Procedure: as §1, §2

[7] = molecular target: GSK3β (h) (Homo sapiens, UniProt P49841); assay: GSK-3β human kinase assay (SPA); assay type: biochemical; conditions: for IC50: read-out: GSK3B pIC50 (converted)
Procedure: as §3, §5, §4
In a final reaction volume of 30 μl, GSK3β (h) (1 μg/ml) is incubated with 25 mM Tris pH 7.4, 10 mM MgCl2, 1 mM DTT, 1 μM peptide Biotin-KRREILSRRPSYR-OH, 1 μM ATP and 2 nM [γ-^33P-ATP] (6.0 μCi/ml). After incubation of 60 minutes at room temperature, the reaction is stopped by addition of […] of stop solution containing 8.7 mM EDTA, BSA 0.17%, 0.17% Triton X-100, 6.25 mg/ml SPA beads (GE-healthcare). The plate is centriguged and read for Scintillation imaging on Leadseeker.

[8] = molecular target: AuroraB (h) (Homo sapiens, UniProt Q96GD4); assay: Aurora-B human kinase assay (SPA); assay type: biochemical; conditions: for IC50: read-out: AuroraB pIC50 (converted)
Procedure: as §3, §5, §4
In a final reaction volume of 30 μl, AuroraB (h) (0.5 μg/ml) is incubated with 60 mM Hepes pH 7.5, 3 mM MgCl2, 3 mM MnCl2, 3 μM Na3VO4, 0.05 mg/ml PEG, 2 mM DTT, 3 μM Biotin-[…]-OH, 0.5 μM ATP and 2.2 nM [γ-^33P-ATP] (6.8 μCi/ml). After incubation of 60 minutes at room temperature, the reaction is stopped by addition of 40 μL of stop solution containing 8.7 mM EDTA, BSA 0.17%, 0.17% Triton X-100, 5 mg/ml SPA beads (GE-healthcare). The plate is centriguged and read for Scintillation imaging on Leadseeker.

[9] = test system: PC-3; assay: Cellular proliferation assay (Alamar blue), PC-3; assay type: cell-based; conditions: PC-3 cells, 72 hours with compound, 10% FCS; for IC50: Homo sapiens, PC-3, 72 h, read-out: pIC50 PC-3 (converted)
Procedure: as §1, §2

[10] = test system: U87MG; assay: Cellular proliferation assay (Alamar blue), U87MG; assay type: cell-based; conditions: U87MG cells, 72 hours with compound, 10% FCS; for IC50: Homo sapiens, U-87 MG, 72 h, read-out: pIC50 U87MG (converted)
Procedure: as §1, §2

Sequence of CDK1/CyclinB (h) (P06493 whole entry): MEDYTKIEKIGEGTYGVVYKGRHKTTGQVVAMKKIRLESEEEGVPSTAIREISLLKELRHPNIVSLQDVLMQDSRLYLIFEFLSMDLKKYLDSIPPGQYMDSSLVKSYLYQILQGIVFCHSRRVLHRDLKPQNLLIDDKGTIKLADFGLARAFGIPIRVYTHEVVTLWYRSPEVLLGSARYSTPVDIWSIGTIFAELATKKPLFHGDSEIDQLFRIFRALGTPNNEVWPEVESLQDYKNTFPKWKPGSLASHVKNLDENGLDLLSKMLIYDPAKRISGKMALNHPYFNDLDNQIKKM
Sequence of CDK1/CyclinB (h) (P14635 whole entry partner): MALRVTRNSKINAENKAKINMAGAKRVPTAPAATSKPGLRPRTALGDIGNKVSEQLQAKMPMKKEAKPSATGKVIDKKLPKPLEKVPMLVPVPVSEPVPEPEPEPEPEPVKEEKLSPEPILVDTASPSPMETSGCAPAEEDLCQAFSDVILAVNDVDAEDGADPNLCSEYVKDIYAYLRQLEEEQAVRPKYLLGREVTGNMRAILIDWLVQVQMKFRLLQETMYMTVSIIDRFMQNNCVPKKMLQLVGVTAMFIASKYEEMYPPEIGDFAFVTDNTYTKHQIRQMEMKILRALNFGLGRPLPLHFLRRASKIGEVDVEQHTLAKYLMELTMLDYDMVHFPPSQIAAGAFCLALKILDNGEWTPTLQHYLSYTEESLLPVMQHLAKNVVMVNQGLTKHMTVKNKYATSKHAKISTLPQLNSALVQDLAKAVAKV
Sequence of AuroraB (h) (Q96GD4 whole entry): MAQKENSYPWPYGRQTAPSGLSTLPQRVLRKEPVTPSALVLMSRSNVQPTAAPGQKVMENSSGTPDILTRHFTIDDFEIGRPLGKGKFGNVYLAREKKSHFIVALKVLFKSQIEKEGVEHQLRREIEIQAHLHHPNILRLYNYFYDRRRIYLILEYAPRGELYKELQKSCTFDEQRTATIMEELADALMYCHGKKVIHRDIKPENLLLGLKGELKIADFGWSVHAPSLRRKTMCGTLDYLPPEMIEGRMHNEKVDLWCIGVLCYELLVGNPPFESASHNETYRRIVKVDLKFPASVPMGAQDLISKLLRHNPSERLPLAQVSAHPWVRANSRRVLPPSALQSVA
Sequence of PLK4 (h) (O00444 whole entry): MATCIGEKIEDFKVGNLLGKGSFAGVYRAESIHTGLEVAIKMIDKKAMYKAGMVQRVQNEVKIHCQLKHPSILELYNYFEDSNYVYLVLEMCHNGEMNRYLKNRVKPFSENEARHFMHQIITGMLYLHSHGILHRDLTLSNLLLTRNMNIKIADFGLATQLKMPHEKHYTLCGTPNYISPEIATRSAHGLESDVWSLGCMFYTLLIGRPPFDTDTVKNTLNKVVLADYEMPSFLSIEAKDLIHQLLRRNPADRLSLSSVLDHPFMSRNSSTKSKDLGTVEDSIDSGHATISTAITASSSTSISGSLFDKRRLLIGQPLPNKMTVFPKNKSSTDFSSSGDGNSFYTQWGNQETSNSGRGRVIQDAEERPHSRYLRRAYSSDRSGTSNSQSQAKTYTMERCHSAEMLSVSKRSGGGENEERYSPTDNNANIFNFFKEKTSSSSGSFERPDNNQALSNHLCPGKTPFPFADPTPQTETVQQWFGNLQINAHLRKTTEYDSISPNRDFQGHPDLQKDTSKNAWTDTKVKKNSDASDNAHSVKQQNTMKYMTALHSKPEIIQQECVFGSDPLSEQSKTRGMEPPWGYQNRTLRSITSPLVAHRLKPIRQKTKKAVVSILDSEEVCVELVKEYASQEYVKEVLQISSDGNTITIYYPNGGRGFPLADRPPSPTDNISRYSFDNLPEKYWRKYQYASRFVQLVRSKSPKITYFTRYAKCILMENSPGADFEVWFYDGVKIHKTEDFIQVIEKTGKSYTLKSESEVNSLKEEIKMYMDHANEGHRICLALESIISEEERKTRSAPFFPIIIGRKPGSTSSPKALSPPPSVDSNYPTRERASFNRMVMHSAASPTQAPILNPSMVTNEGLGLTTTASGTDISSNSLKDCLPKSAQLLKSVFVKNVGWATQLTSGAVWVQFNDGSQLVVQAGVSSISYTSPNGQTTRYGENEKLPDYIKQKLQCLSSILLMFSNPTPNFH
Sequence of GSK3β (h) (P49841 whole entry): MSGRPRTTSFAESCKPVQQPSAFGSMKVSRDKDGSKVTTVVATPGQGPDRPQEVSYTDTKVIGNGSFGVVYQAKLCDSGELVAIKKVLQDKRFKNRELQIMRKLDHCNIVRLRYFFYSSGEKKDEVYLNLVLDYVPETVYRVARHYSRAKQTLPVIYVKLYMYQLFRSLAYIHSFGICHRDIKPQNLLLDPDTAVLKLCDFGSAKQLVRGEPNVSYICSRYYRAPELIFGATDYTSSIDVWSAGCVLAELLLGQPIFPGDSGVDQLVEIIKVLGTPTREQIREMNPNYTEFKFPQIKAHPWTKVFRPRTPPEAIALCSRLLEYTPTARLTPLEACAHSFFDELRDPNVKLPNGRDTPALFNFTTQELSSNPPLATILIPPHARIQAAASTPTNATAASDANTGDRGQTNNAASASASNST

Compound	IC50 [1]	IC50 [2]	IC50 [3]	IC50 [5]	IC50 [6]	IC50 [7]	IC50 [8]	IC50 [9]	IC50 [10]	other results
CN1CCCNc2ncnc3c2/C(=C/Nc2ccc(Cl)c(c2)OCCCCC1=O)C(=O)N3 [Compound 61]	> 10 µM	> 10 µM	1.78 µM	> 10 µM	8.71 µM	0.0631 µM	0.0513 µM	> 10 µM	–	IC50 [4]: > 10 µM
COc1ccc2cc1OCCCC(=O)NCCCNc1ncnc3c1C(=CN2)C(=O)N3 (mixture of isomers) [Compound 146]	–	–	–	–	–	–	–	–	–	pIC50 H1299 [1]: 6.41; CDK1 pIC50 [2]: 7.21; PLK4 pIC50 [3]: 7.34; pIC50 A2780 [5]: 5.83; pIC50 HCT-116 [6]: 6.15; pIC50 U87MG [10]: 5.80; GSK3B pIC50 [7]: 7.56; AuroraB pIC50 [8]: 7.24; pIC50 PC-3 [9]: 6.22
COc1nc2c3c(n1)NC(=O)/C3=C\Nc1ccc(Cl)c(c1)OCCCCC(=O)N(C)CCCN2 [Compound 111]	> 10 µM	–	–	3.24 µM	3.63 µM	3.09 µM	> 10 µM	6.46 µM	2.69 µM	–
O=C1Nc2ncnc3c2/C1=C/Nc1ccc(Cl)c(c1)OCCCCCC(=O)N1CCN3CC1 [Compound 25]	–	–	> 10 µM	> 10 µM	–	–	–	> 10 µM	> 10 µM	IC50 [4]: > 10 µM
COc1ccc2cc1OCC(=O)NCCN1CCN(CC1)c1ncnc3c1/C(=C/N2)C(=O)N3 [Compound 207]	> 10 µM	–	–	> 10 µM	> 10 µM	4.07 µM	1.86 µM	> 10 µM	> 10 µM	IC50 [4]: > 10 µM
COc1ccc2cc1OCC(=O)N[C@H](Cc1ccccc1)CN(C)CCNc1ncnc3c1/C(=C/N2)C(=O)N3 [Compound 191]	> 10 µM	–	1.66 µM and 2.09 µM and > 10 µM	2.45 µM	2.4 µM	–	3.39 µM and 3.55 µM and > 10 µM	–	–	pIC50 A2780 [5]: 5.47; pIC50 HCT-116 [6]: 5.55 and 5.77
O=C1CCCOc2cccc(c2)NC=C2C(=O)Nc3ncnc(c32)NCCCN1 (mixture of isomers) [Compound 142]	–	–	–	–	–	–	–	–	–	pIC50 H1299 [1]: 6.14; CDK1 pIC50 [2]: 6.83; PLK4 pIC50 [3]: 7.3; pIC50 MDA/MB231 [4]: <5; pIC50 A2780 [5]: <5; pIC50 U87MG [10]: 5.19; GSK3B pIC50 [7]: 7.7; AuroraB pIC50 [8]: 6.93; pIC50 PC-3 [9]: 5.75
CN1CCN(c2ccc3cc2OCCCC(=O)N(C)CCCNc2ncnc4c2C(=CN3)C(=O)N4)CC1 (mixture of isomers) [Compound 133]	–	–	–	–	–	–	–	–	–	pIC50 H1299 [1]: 5.17; CDK1 pIC50 [2]: 6.8; PLK4 pIC50 [3]: 7.21; pIC50 A2780 [5]: 6.00; pIC50 HCT-116 [6]: 6.16; pIC50 U87MG [10]: 5.65; GSK3B pIC50 [7]: 6.95; AuroraB pIC50 [8]: 5.81; pIC50 PC-3 [9]: 5.02
CC(C)N1CCCCCCC(=O)N2CCN(CC2)c2ncnc3c2/C(=C/Nc2ccc(F)c(c2)C1)C(=O)N3 [Compound 29]	–	–	> 10 µM	> 10 µM	> 10 µM	–	–	> 10 µM	> 10 µM	IC50 [4]: > 10 µM
CN1CCN(c2ccc3cc2CN(C)CCCC(=O)N(C)CCCNc2ncnc4c2/C(=C/N3)C(=O)N4)CC1 [Compound 140]	2.63 µM	1.55 µM	0.525 µM	1.23 µM	–	0.0513 µM	> 10 µM	6.17 µM	0.501 µM	–
CN1CCCNc2ncnc3c2/C(=C/Nc2cccc(c2)OCCCCCCC1=O)C(=O)N3 [Compound 69]	> 10 µM	> 10 µM	3.39 µM	> 10 µM	> 10 µM	1.07 µM	5.01 µM	–	> 10 µM	–
CN1CCCCC(=O)N(C)CCNc2ncnc3c2/C(=C/Nc2cccc(c2)C1)C(=O)N3 [Compound 79]	–	8.91 µM	3.31 µM	–	–	0.813 µM	9.12 µM	–	–	–
CN1CCNc2ncnc3c2/C(=C/Nc2ccc(Cl)c(c2)OCCCCCC1=O)C(=O)N3 [Compound 57]	–	> 10 µM	4.79 µM	–	–	0.263 µM	1.07 µM	–	–	–
CN1CCNc2ncnc3c2/C(=C/Nc2cc(cc(C(F)(F)F)c2)OCCCCC1=O)C(=O)N3 [Compound 128]	–	> 10 µM	> 10 µM	–	–	> 10 µM	> 10 µM	–	–	–
CN1CC(=O)N2CCN(CC2)c2cccc3c2/C(=C/Nc2cccc(c2)S1(=O)=O)C(=O)N3 [Compound 2]	–	5.62 µM	4.57 µM	–	–	1.17 µM	> 10 µM	–	–	–
CN1CCCC(=O)N(C)CCCNc2ncnc3c2/C(=C/Nc2ccc(N4CCOCC4)c(c2)C1)C(=O)N3 [Compound 7]	–	1.7 µM	0.759 µM	–	–	0.0741 µM	> 10 µM	–	–	–
COc1ccc2cc1OCCCCCC(=O)N(C)CCCNc1ncnc3c1/C(=C/N2)C(=O)N3 [Compound 66]	–	2.34 µM	0.479 µM	–	–	0.0776 µM	0.347 µM	–	–	–
N#Cc1ccc2cc1OCCCC(=O)N1CCN(CC1)c1ncnc3c1/C(=C/N2)C(=O)N3 [Compound 98]	–	> 10 µM	> 10 µM	–	–	0.776 µM	> 10 µM	–	–	–

From US8338422B2, “Indolin-2-ones and aza-indolin-2-ones” (Janssen Pharmaceutica NV, priority 2007, dated 2012)
